Consider two compounds from US20230107216A1, “PANTETHEINE DERIVATIVES AND USES THEREOF” (Comet Therapeutics, Inc., priority 2018, published 2023).

Where two headings read alike, the source gives them in different places. Some results are limits rather than exact numbers.

Series [1] can be described thus: Deuterated and endogenous Coenzyme A in tissues after single and multiple dosing to vitamin B5-deprived mice (LC-MS/MS). Type of series: in vivo, C57BL/6N mice. The procedure: Example 22: Determining Deuterated and Endogenous Coenzyme A in Various Tissues after Single and Multiple Dosing of Compound 1216 to Vitamin B5-Deprived Male C57BL/6N Mice
C57BL6/J male mice were placed on a Vitamin B5 deprived diet for 2 weeks prior to the start of dosing with Compound 1216, single or multiple dosing with either IV or oral administration. […]
The test item and vehicle were administered to the appropriate animals via intravenous (slow bolus) injection to the tail vein (Groups 1-5). In Group 6 test item was administered via oral gavage. The dose volume for each animal was based on the most recent body weight measurement. The animals were temporarily restrained for dose administration and were not sedated. The dose was given using a disposable needle and syringe (intravenous administration) or a stainless steel tube (oral gavage). The dosing formulations were stirred continuously during dose administration, when possible.
Tissue samples were directly removed after sacrifice, together with plasma and CSF and immediately snap frozen in liquid nitrogen and stored at −80° C. […].
Ultrapure water (UPW) was added to the tissue in a 3:1 ratio (e.g. 1 gr tissue+3 ml UPR) and homogenized for 2 minutes at 30/s with 3 beads using a bead mill. Samples were placed on ice and 200 mg weighed in a 2 ml PP tube. 20 μL 50 mM TCEP was added to the sample and vortexed and placed on ice water for 30 minutes. Subsequently 100 μL Perchloric acid was added and the samples was again vortexed and centrifuged for 5 min at 13000 ref (4° C.). Then 225 μL of the supernatant was transferred to a 1.5 mL PP tube. Then 50 μL 3M KOH was added, vortexed and incubated for 2h on ice water. Then 50 μL 3M HCl was added and again vortexed and centrifuged for 5 min at 13000 rcf (4° C.). 100 μL of the supernatant was transferred to a 1.5 mL PP tube, 150 μL UPW was added, and the samples was again vortexed. Then 200 μL of the supernatant was transferred to a 96-wells plate and the samples were ready for measurement. […]

The subject of series [2] is monocyte-derived M1 macrophages. The experiment in a line: M1 differentiation assay (macrophage TNFα, IL6, IL10 ELISA, FACS). Type of series: cell-based, human. The following applies: Homo sapiens, Macrophage, 10 uM. The method in brief:
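CD14+ human blood monocytes (100,000) differentiated 6 days with 10 ng/ml GM-CSF plus compound at 10 or 50 μM, refreshed days 2 and 4. Matured 24 h with GM-CSF, IFNγ, LPS plus compound. Supernatant TNFα, IL6, IL10 by ELISA; FACS M1 phenotype CD86+CD68+CD163−.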
For orientation: ELISA stands for enzyme-linked immunosorbent assay.

Series [3] can be described thus: Treg differentiation assay. The class given is cell-based. The following applies: human. How it is done:
Naïve CD4+ T cells (Stemcell, 17555) were isolated from PBMC and placed (20,000 cells/well) in 10 μg/ml anti-CD3 antibody (eBioscience, 16-0037-85) pre-coated 96-well flat bottom plate (Eppendorf, Cat #30730119) for 3 hours at 37° C. in an X-VIVO15 medium (Lonza, 04-418Q) supplemented with 15% FBS (Hyclone SV30087.03) and 1% Penicillin-Streptomycin (Hyclone, SV30010). Treg induction cocktail was added including 2 μg/ml anti-CD28 (eBioscience 16-0289-85), 20 ng/ml IL-2 (R&D, 202-IL-050) 0.2 ng/ml TGF-β1 (Peprotech, 100-21-50) in the presence of the compounds at 10 and 50 μM dose. On day 3 half of the medium, was refreshed with Treg differentiation cocktail as above and compounds (10 and 50 μM). On day 5 cells were collected and the following staining were performed: live/dead (Invitrogen, L34963), and Foxp3/Transcription Factor Staining Buffer Set (EBioscience, 00-5523-00), mouse anti-human FoxP3 (BD, 560046) or mouse IgG1, κIsotype control (BD, 555749) and analyzed by FACS (BD LSR Fortessa, 853492).

Series [4] deals with primary fibroblasts (healthy controls and PA, MMA, BCKDK, PDH, VLCAD, LS, PC, GA, VLCFA, KSS, FXN, HD). Put plainly: Measurement of ROS (H2DCFDA) in primary fibroblasts. The class given is cell-based, human. Particulars: Homo sapiens, Fibroblast, BCKD GM00649, procedure Example 812, Assay Condition C. The gist of the method: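 Patient and healthy-control primary fibroblasts switched to supplemented DMEM 24 h before assay, then treated with compound (10 μM) plus H2DCFDA (22 μM) for 2 h (PA, MMA lines) or 24 h (other lines). Kinetic fluorescence at 492/527 nm over 60 min; only live cells analysed.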

The next series has as its system HepG2 cells. Put plainly: MitoBiogenesis In-Cell ELISA (COX-I, SDH-A). The class given is cell-based. Particulars: Homo sapiens, 168 h, 10 uM, 7 days, read-out: % increase in Mitochondrial Biogenesis. The gist of the method:
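HepG2 cells were plated, adhered overnight at 37 °C/5% CO2, then exposed to test compounds (50–10 μM) in DMEM with 10% FBS for 7 days without media change; vehicle was 0.2% DMSO. COX-I and SDH-A were measured by in-cell ELISA and reported as signal relative to vehicle, n=2.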

As to `[2H]C([2H])([2H])C(COP(=O)(O)O)(C(O)C(=O)NCCC(=O)NCCSC(C)=O)C([2H])([2H])[2H]` (stereo not shown) [Compound 1216, S-acetyl-4′-phosphopantetheine-D6], the “Levels of labeled CoA in liver and kidney” value in series [1] (multiple IV doses) was “high levels of labeled CoA”. Also, the “Presence of deuterated (labelled) CoA in three brain regions and other organs over time” value in series [1] (multiple IV doses, up to 24 hours after last dose) is given as “prolonged presence of deuterated (labelled) CoA”. Besides, the “Deuterated (labelled) CoA in cerebellum, cerebrum, remainder of the brain, liver, heart and kidney” value in series [1] (multiple doses (either 3 or 5, IV and oral) of 102.8 mg/kg every 12 hours, vitamin B5-deprived mice, 15 minutes after last dose) is reported as “results in deuterated (labelled) CoA”.

As to `C/C=C/C(=O)SCCNC(=O)CCNC(=O)[C@H](O)C(C)(C)CO` [Compound 35, (R)—S-(2-(3-(2,4-dihydroxy-3,3-dimethylbutanamido)propanamido)ethyl) (E)-but-2-enethioate], the activation at 10 µM in series [2] (read-out: % Increase in IL-10 Secretion) is no less than 30%; with HepG2 cells, greater than 5%. In addition, the inhibition at 10 µM in series [2] (read-out: % decrease in Macrophage IL-6 Secretion) is no less than 30%; in series [2] (read-out: % decrease in Macrophage TNFα Secretion), no less than 30%; in series [4] (read-out: Decreased ROS by at least 10%) it was no less than 10%; in series [4] (read-out: Decreased ROS by at least 30%), no less than 30%. In series [3], this compound showed a percent decrease in viable Treg cells at 5 days, 50 µM of no less than 30%.
